We go through five molecules from PMC6259134, “Synthesis, Antimycobacterial, Antifungal and Photosynthesis-Inhibiting Activity of Chlorinated N-phenylpyrazine-2-carboxamides” (Molecules, 2010).

One series has as its system M. tuberculosis H37Rv. The conditions noted are these: cited from earlier work.
The test system of series [1] is photosynthetic electron transport (PET) in spinach chloroplasts. Put plainly: Inhibition of photosynthetic electron transport (PET) in spinach chloroplasts (DCPIP photoreduction). It is filed as biochemical, Spinacia oleracea L. The procedure:
The activity of the majority of the studied compounds was moderate or low relative to the standard. Chloroplasts were prepared from spinach (Spinacia oleracea L.) according to Masarovičová and Kráľová [26]. […] [27], and the rate of photosynthetic electron transport was monitored as a photoreduction of DCPIP. The measurements were carried out in phosphate buffer (0.02 mol/L, pH 7.2) containing sucrose (0.4 mol/L), MgCl2 (0.005 mol/L) and NaCl (0.015 mol/L). The chlorophyll content was 30 mg/L in these experiments and the samples were irradiated (~100 W/m^2) from 10 cm distance with a halogen lamp (250 W) using a 4 cm water filter to prevent warming of the samples (suspension temperature 22 °C). The studied compounds were dissolved in DMSO due to their limited water solubility. […] The inhibitory efficiency of the studied compounds was manifested by IC50 values, i.e. by molar concentration of the compounds causing 50% decrease in the […] relative to the untreated control.

In series [2] the test system is M. tuberculosis H37Rv (ATCC27294). Briefly: In vitro antimycobacterial primary screening (TAACF, BACTEC 460 / MABA). The series is classed as cell-based. The following applies: Mycobacterium tuberculosis, read-out: Antimycobacterial evaluation Inhibition. The procedure: All compounds were assayed in vitro against M. tuberculosis H37Rv. […] None of the tested derivatives overcame this limit, see Table 2.
Antimycobacterial evaluation was carried out in the tuberculosis antimicrobial acquisition and coordinating facility (TAACF), Southern Research Institute, Birmingham, AL, U.S.A., which is a part of the National Institutes of Health (NIH). Primary screening of all compounds was conducted at 6.25 µg/mL against M. tuberculosis H37Rv (ATCC27294) in BACTEC 12B medium using both BACTEC 460 radiometric system and the Microplate Alamar Blue Assay (MABA). For the results see Table 2.

Series [3] relates to Trichophyton mentagrophytes 445. Put plainly: In vitro antifungal susceptibility testing (microdilution broth method). The series is classed as cell-based. The following applies: Trichophyton mentagrophytes, 445, T. mentagrophytes, MIC for moulds determined as IC50 value, read-out: Antifungal susceptibility MIC. (Dilution methods test growth across graded concentrations, often in twofold steps.)

The nature of series [4]: Lipophilicity determination by RP-HPLC (capacity factor k / log k, distributive π parameters). The series is classed as physicochemical. The conditions noted are these: RP-HPLC, C18, MeOH 70%/H2O 30%, isocratic. The procedure: The procedure was performed under isocratic conditions with methanol as an organic modifier in the mobile phase using an end-capped non-polar C18 stationary RP column. The results are shown in Table 1 and illustrated in Figure 2. Waters Alliance 2695 XE HPLC separation module and Waters Photodiode Array Detector 2996 (Waters Corp., Milford, MA, USA) were used. Waters Symmetry® C18 5 μm, 4.6 ° 250 mm, Part No. WAT054275 (Waters Corp., Milford, MA, USA) chromatographic column was used. The HPLC separation process was monitored by Empower™ 2 Chromatography Data Software, Waters 2009 (Waters Corp., Milford, MA, USA). The mixture of MeOH (HPLC grade, 70%) and H2O (HPLC–Mili-Q Grade, 30%) was used as a mobile phase. The total flow rate of the column was 1.0 mL/min, injection volume 30 μL, column temperature 30 °C and sample temperature 10 °C were used. The detection wavelength of 210 nm was chosen. The KI methanolic solution was used for the dead time (tD) determination. Retention times (tR) were measured in minutes. The capacity factors k were calculated using the Empower™ 2 Chromatography Data Software according to formula k = (tR - tD)/tD, where tR is the retention time of the solute, whereas tD denotes the dead time obtained using an unretained analyte. Log k, calculated from the capacity factor k, is used as the lipophilicity index converted to log P scale. Distributive π parameters characterizing lipophilicity of the individual substituents were calculated according to the formula π = log kS – log kU, where log kS is the determined capacity factor logarithm of the individual substituted compounds, whereas log kU denotes the determined capacity factor logarithm of the unsubstituted compound, it means π = 0.

On the set-up of series [5]: method as in PMID 1151976, doi:10.1002/9780470171912.ch3. The following applies: Hammett's constant of R3 phenyl substituent; cited from earlier work.
Series [6] has as its system photosynthetic electron transport (PET) in spinach chloroplasts. Set-up: method as in earlier work. The conditions noted are these: standard, read-out: PET inhibition IC50; cited from earlier work.

Several values for one entry are separate records, joined by “and”; a condition that tells them apart may be missing. Identical values can stand only once. Like-named read-outs stand apart in the source and are kept apart here.

As usually defined, the MIC is the smallest concentration in the dilution series that meets the test's criterion for growth inhibition. In the case of `O=C(Nc1cccc(C(F)(F)F)c1)c1cnccn1` [N-(3-Trifluoromethylphenyl)pyrazine-2-carboxamide], the MIC with M. tuberculosis H37Rv was 3.13 to 6.25 µg/mL.

Turning to `CC(C)(C)c1ncc(C(=O)Nc2cccc(C(F)(F)F)c2)nc1Cl` [5-tert-butyl-6-chloro-N-(3-trifluoromethylphenyl)pyrazine-2-carboxamide], the MIC in the series on M. tuberculosis H37Rv was 3.13 to 6.25 µg/mL.

In the case of `Cc1ccc(NC(=O)c2cnccn2)cc1I` [N-(3-iodo-4-methylphenyl)pyrazine-2-carbox-amide], in the series on M. tuberculosis H37Rv, the MIC was 3.13 to 6.25 µg/mL.

One may read the IC50 as the concentration at which inhibition is half-maximal. What is called inhibition is the drop in the measured response relative to a control, in per cent. Turning to `CC(C)(C)c1cnc(C(=O)Nc2cccc(Cl)c2)cn1` [Compound 3, 5-tert-Butylpyrazine-2-carboxylic acid (3-chlorophenyl)amide], 95.5 µM corresponded to half-maximal inhibition in series [1] (IC50). Further, in series [2], the inhibition at 6.25 µg/mL was 0%. Further, the MIC in series [3] (after 72 h) and in series [3] (after 120 h) was above 250 µM throughout. The same molecule gave a log k in series [4] of 1.0996. Also, in series [5], the σ is reported as 0.373.

Consider `CN(C)C(=O)Nc1ccc(Cl)c(Cl)c1` [DCMU, 3-(3,4-dichlorophenyl)-1,1-dimethylurea], for which the IC50 in series [6] was ~1.9 µM and 1.9 µM.
